In PubChem BioAssay AID248 (DTP/NCI, 2004):
“And” between values parts separate entries of the source, which are not always exact repeats. Equal values may be shown once. Toxic doses and inconclusive results are not listed.

System: L1210 leukemia ip in BDF1 mice, survival T/C
Experiment: NCI In Vivo Anticancer Drug Screen. Data for tumor model L1210 Leukemia (intraperitoneal) in B6D2F1 (BDF1) mice
Settings: endpoint: mean survival time, higher = longer survival
How it was run: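 Transplantable tumor model; survival measured in treated vs vehicle control mice. Value = treated/control.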

Q: What does the source list for `COc1cc2c(cc1OC)C(OC)N(C)c1c-2ccc2cc3c(cc12)OCO3` (centres undefined)?
A: T/C (dose: 5.0 mg/kg/injection, schedule: Q01DX009 (ip), vehicle: Klucel (hydroxypropylcellulose) (HPC)): 106 % of control; T/C (dose: 10.0 mg/kg/injection, schedule: Q01DX009 (ip), vehicle: Klucel (hydroxypropylcellulose) (HPC)): 106 % of control; T/C (dose: 10.0 mg/kg/injection, schedule: Q01DX009 (ip), vehicle: saline): 123 % of control; T/C (dose: 20.0 mg/kg/injection, schedule: Q01DX009 (ip), vehicle: Klucel (hydroxypropylcellulose) (HPC)): 95 % of control; T/C (dose: 20.0 mg/kg/injection, schedule: Q01DX009 (ip), vehicle: steriod suspending solution): 163 % of control; T/C (dose: 20.0 mg/kg/injection, schedule: Q04DX003 (ip), vehicle: saline): 123 % of control; T/C (dose: 40.0 mg/kg/injection, schedule: Q01DX009 (ip), vehicle: Klucel (hydroxypropylcellulose) (HPC)): 113 % of control; T/C (dose: 40.0 mg/kg/injection, schedule: Q04DX003 (ip), vehicle: saline): 121 % of control; T/C (dose: 80.0 mg/kg/injection, schedule: Q01DX009 (ip), vehicle: Klucel (hydroxypropylcellulose) (HPC)): 111 % of control; T/C (dose: 80.0 mg/kg/injection, schedule: Q04DX003 (ip), vehicle: saline): 124 % of control; T/C (dose: 100.0 mg/kg/injection, schedule: Q04DX002 (ip), vehicle: Klucel (hydroxypropylcellulose) (HPC)): 118 % of control and 119 % of control; T/C (dose: 100.0 mg/kg/injection, schedule: Q04DX003 (ip), vehicle: Klucel (hydroxypropylcellulose) (HPC)): 116 % of control; T/C (dose: 160.0 mg/kg/injection, schedule: Q01DX009 (ip), vehicle: Klucel (hydroxypropylcellulose) (HPC)): 109 % of control; T/C (dose: 160.0 mg/kg/injection, schedule: Q04DX003 (ip), vehicle: saline): 112 % of control; T/C (dose: 200.0 mg/kg/injection, schedule: Q01DX009 (ip), vehicle: Klucel (hydroxypropylcellulose) (HPC)): 122 % of control; T/C (dose: 200.0 mg/kg/injection, schedule: Q04DX002 (ip), vehicle: Klucel (hydroxypropylcellulose) (HPC)): 123 % of control; T/C (dose: 200.0 mg/kg/injection, schedule: Q04DX003 (ip), vehicle: Klucel (hydroxypropylcellulose) (HPC)): 111 % of control; T/C (dose: 320.0 mg/kg/injection, schedule: Q01DX009 (ip), vehicle: Klucel (hydroxypropylcellulose) (HPC)): 111 % of control; T/C (dose: 400.0 mg/kg/injection, schedule: Q01DX009 (ip), vehicle: Klucel (hydroxypropylcellulose) (HPC)): 124 % of control; T/C (dose: 400.0 mg/kg/injection, schedule: Q04DX002 (ip), vehicle: Klucel (hydroxypropylcellulose) (HPC)): 152 % of control; T/C (dose: 400.0 mg/kg/injection, schedule: Q04DX003 (ip), vehicle: Klucel (hydroxypropylcellulose) (HPC)): 106 % of control

Q: How did the T/C (dose: 100.0 mg/kg/injection, schedule: Q04DX002 (ip), vehicle: saline) turn out when `CCCC/C=C1\CCCC(C)C1` (centres undefined) was run?
A: Its T/C is 101 % of control.

Q: What about the T/C (dose: 200.0 mg/kg/injection, schedule: Q04DX002 (ip), vehicle: saline) of the same molecule?
A: Its T/C is 101 % of control.

Q: What about the T/C (dose: 400.0 mg/kg/injection, schedule: Q04DX002 (ip), vehicle: saline) of the same molecule?
A: The T/C was 97 % of control.

Q: Which results are given for `Cc1ccc(NCCN2CCOCC2)c2c(=O)c3ccccc3sc12`?
A: T/C (dose: 9.0 mg/kg/injection, schedule: Q01DX Z (ip), vehicle: methylcellulose (MC)): 92 % of control; T/C (dose: 14.0 mg/kg/injection, schedule: Q01DX Z (ip), vehicle: methylcellulose (MC)): 104 % of control; T/C (dose: 21.0 mg/kg/injection, schedule: Q01DX Z (ip), vehicle: methylcellulose (MC)): 97 % of control; T/C (dose: 32.0 mg/kg/injection, schedule: Q01DX Z (ip), vehicle: methylcellulose (MC)): 109 % of control

Q: With `NC(=O)c1cc([N+](=O)[O-])c(N)c([N+](=O)[O-])c1` as the molecule, how does the T/C (dose: 100.0 mg/kg/injection, schedule: Q01DX001 (ip), vehicle: saline with Tween-80) read?
A: Its T/C is 100 % of control.

Q: What about the T/C (dose: 200.0 mg/kg/injection, schedule: Q01DX001 (ip), vehicle: saline with Tween-80) of the same molecule?
A: The T/C was 95 % of control.

Q: And the T/C (dose: 400.0 mg/kg/injection, schedule: Q01DX001 (ip), vehicle: saline with Tween-80)?
A: The T/C was 100 % of control.

Q: What does the source list for `COCC1OC(OC)C(NC(C)=O)C(OC)C1OC` (centres undefined)?
A: T/C (dose: 100.0 mg/kg/injection, schedule: Q01DX001 (ip), vehicle: saline): 101 % of control; T/C (dose: 200.0 mg/kg/injection, schedule: Q01DX001 (ip), vehicle: saline): 101 % of control; T/C (dose: 400.0 mg/kg/injection, schedule: Q01DX001 (ip), vehicle: saline): 96 % of control
